Assay results as given in ChEMBL document CHEMBL1201862, “PubChem BioAssay data set” (2004).
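The compound was tested at five concentrations on cells cultured in 96-well plates, with a 48-hour exposure period. GI50 marks 50% less growth.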 Calls of active or inactive are those of the source. Cut-off read from the data, not from the text of the source: active = GI50 up to about 1.1 µM and inactive = higher.

Tests used:
Test in all cases: inhibition of tumour cell growth, NCI panel, 48 h
SF-295 = test system: SF-295
SK-MEL-28 = test system: SK-MEL-28
SNB-75 = test system: SNB-75
SF-539 = test system: SF-539
A498 = test system: A498
LXFL 529 = test system: LXFL 529
UACC-62 = test system: UACC-62
M19-MEL = test system: M19-MEL
A549 = test system: A549
RPMI-8226 = test system: RPMI-8226
HOP-92 = test system: HOP-92
UO-31 = test system: UO-31
DMS-114 = test system: DMS-114
COLO 205 = test system: COLO 205
SK-MEL-5 = test system: SK-MEL-5
OVCAR-4 = test system: OVCAR-4
SK-OV-3 = test system: SK-OV-3
K562 = test system: K562
HL-60 = test system: HL-60
ACHN = test system: ACHN
EKVX = test system: EKVX
UACC-257 = test system: UACC-257
SNB-78 = test system: SNB-78
MOLT-4 = test system: MOLT-4
HCT-116 = test system: HCT-116
HCT-15 = test system: HCT-15
SR = test system: SR
OVCAR-8 = test system: OVCAR-8
XF498 = test system: XF498
RXF 393 = test system: RXF 393
CAKI-1 = test system: CAKI-1
786-0 = test system: 786-0
LOX IMVI = test system: LOX IMVI
SN12C = test system: SN12C
SW-620 = test system: SW-620
NCI-H226 = test system: NCI-H226
HOP-18 = test system: HOP-18
HOP-62 = test system: HOP-62
CCRF-CEM = test system: CCRF-CEM
NCI-H522 = test system: NCI-H522
OVCAR-5 = test system: OVCAR-5
HT-29 = test system: HT-29
NCI-H460 = test system: NCI-H460
TK-10 = test system: TK-10
SF-268 = test system: SF-268
KM12 = test system: KM12
DMS-273 = test system: DMS-273
U-251 = test system: U-251
OVCAR-3 = test system: OVCAR-3
Malme-3M = test system: Malme-3M
NCI-H23 = test system: NCI-H23
SNB-19 = test system: SNB-19
SK-MEL-2 = test system: SK-MEL-2
IGROV-1 = test system: IGROV-1
KM-20L2 = test system: KM-20L2
DLD-1 = test system: DLD-1
M14 = test system: M14
HCC 2998 = test system: HCC 2998

In the case of `O=C1C2C3CCC(C2C(=O)N1CO)C1C2C(=O)N(CO)C(=O)C2C31` (configuration not stated), the GI50 (SF-295) is reported as > 64.9 µM (inactive), the GI50 (SK-MEL-28) is reported as > 58.9 µM (inactive) and the GI50 (SNB-75) is reported as 50.6 µM (inactive). The GI50 (SF-539) was 43 µM (inactive), the GI50 (A498) was > 100 µM (inactive) and the GI50 (LXFL 529) was 55.3 µM (inactive). The GI50 (UACC-62) was 53.1 µM (inactive), the GI50 (M19-MEL) was 1 µM (active) and the GI50 (A549) was 31 µM (inactive). The GI50 (RPMI-8226) was 21.1 µM (inactive), the GI50 (HOP-92) was > 63.1 µM (inactive) and the GI50 (UO-31) was > 100 µM (inactive). The GI50 (DMS-114) was 25.6 µM (inactive), the GI50 (COLO 205) was 40.4 µM (inactive) and the GI50 (SK-MEL-5) was 43.4 µM (inactive). For the same compound, the GI50 (OVCAR-4) was > 43.9 µM (inactive), the GI50 (SK-OV-3) was > 100 µM (inactive) and the GI50 (K562) was 35.2 µM (inactive). The GI50 (HL-60) was 12 µM (inactive), the GI50 (ACHN) was > 44.1 µM (inactive) and the GI50 (EKVX) was > 100 µM (inactive). The GI50 (UACC-257) was > 100 µM (inactive), the GI50 (SNB-78) was > 100 µM (inactive) and the GI50 (MOLT-4) was 25.1 µM (inactive). The GI50 (HCT-116) was 28.2 µM (inactive), the GI50 (HCT-15) was 26.5 µM and the GI50 (SR) was 13.4 µM (inactive). For the same compound, the GI50 (OVCAR-8) was 32.4 µM (inactive), the GI50 (XF498) was > 100 µM (inactive) and the GI50 (RXF 393) was > 46.9 µM (inactive). For the same compound, the GI50 (CAKI-1) was > 96.6 µM (inactive), the GI50 (786-0) was 43.3 µM (inactive) and the GI50 (LOX IMVI) was 37.5 µM (inactive). The GI50 (SN12C) was > 47.2 µM (inactive), the GI50 (SW-620) was 26.2 µM (inactive) and the GI50 (NCI-H226) was > 81.7 µM (inactive). The GI50 (HOP-18) was 13.7 µM (inactive), the GI50 (HOP-62) was > 100 µM (inactive) and the GI50 (CCRF-CEM) was 19.1 µM (inactive). For the same compound, the GI50 (NCI-H522) was 65.9 µM (inactive), the GI50 (OVCAR-5) was > 100 µM (inactive) and the GI50 (HT-29) was 58.7 µM (inactive). For the same compound, the GI50 (NCI-H460) was 22.7 µM (inactive), the GI50 (TK-10) was > 100 µM (inactive) and the GI50 (SF-268) was > 53.5 µM (inactive). For the same compound, the GI50 (KM12) was > 89.3 µM (inactive), the GI50 (DMS-273) was 36.1 µM (inactive) and the GI50 (U-251) was > 40.3 µM (inactive). The GI50 (OVCAR-3) was > 100 µM (inactive), the GI50 (Malme-3M) was > 100 µM (inactive) and the GI50 (NCI-H23) was > 87.9 µM (inactive). For the same compound, the GI50 (SNB-19) was > 100 µM (inactive), the GI50 (SK-MEL-2) was 36 µM (inactive) and the GI50 (IGROV-1) was > 76 µM (inactive). For the same compound, the GI50 (KM-20L2) was > 52.6 µM (inactive), the GI50 (DLD-1) was 45.4 µM (inactive) and the GI50 (M14) was > 66.7 µM (inactive).
`CCOC(=O)C(Cc1ccc([N+](=O)[O-])cc1)NC(=O)CC1c2ccccc2-c2ccccc21` (configuration not stated) was tested, and the GI50 (SF-295) was 51.5 µM (inactive), the GI50 (SK-MEL-28) was 90.8 µM (inactive) and the GI50 (SNB-75) was 26.1 µM (inactive). The GI50 (SF-539) was 27.9 µM (inactive), the GI50 (A498) was > 100 µM (inactive) and the GI50 (LXFL 529) was > 100 µM (inactive). The GI50 (UACC-62) was > 100 µM (inactive), the GI50 (M19-MEL) was 18.9 µM (inactive) and the GI50 (A549) was 81.8 µM (inactive). The GI50 (RPMI-8226) was > 100 µM (inactive), the GI50 (HOP-92) was 23.7 µM (inactive) and the GI50 (UO-31) was > 100 µM (inactive). The GI50 (DMS-114) was 37.6 µM (inactive), the GI50 (COLO 205) was > 100 µM (inactive) and the GI50 (OVCAR-4) was 55 µM (inactive). For the same compound, the GI50 (SK-OV-3) was 78.7 µM (inactive), the GI50 (K562) was > 100 µM (inactive) and the GI50 (HL-60) was > 100 µM (inactive). The GI50 (ACHN) was 20.7 µM (inactive), the GI50 (EKVX) was > 100 µM (inactive) and the GI50 (HCC 2998) was > 100 µM (inactive). For the same compound, the GI50 (UACC-257) was 24.5 µM (inactive), the GI50 (SNB-78) was 23.8 µM (inactive) and the GI50 (MOLT-4) was > 100 µM (inactive). For the same compound, the GI50 (HCT-116) was > 100 µM (inactive), the GI50 (HCT-15) was over 100 µM and the GI50 (SR) was > 100 µM (inactive). The GI50 (OVCAR-8) was 63.8 µM (inactive), the GI50 (XF498) was 20.8 µM (inactive) and the GI50 (RXF 393) was 18 µM (inactive). The GI50 (786-0) was 39.1 µM (inactive), the GI50 (LOX IMVI) was > 100 µM (inactive) and the GI50 (SN12C) was 67.8 µM (inactive). The GI50 (SW-620) was > 100 µM (inactive), the GI50 (NCI-H226) was > 100 µM (inactive) and the GI50 (HOP-18) was > 100 µM (inactive). The GI50 (HOP-62) was 35.2 µM (inactive), the GI50 (CCRF-CEM) was > 100 µM (inactive) and the GI50 (NCI-H522) was > 100 µM (inactive). The GI50 (HT-29) was > 100 µM (inactive), the GI50 (NCI-H460) was > 100 µM (inactive) and the GI50 (TK-10) was 32.7 µM (inactive). For the same compound, the GI50 (SF-268) was 50.7 µM (inactive), the GI50 (KM12) was > 100 µM (inactive) and the GI50 (DMS-273) was 63.5 µM (inactive). The GI50 (U-251) was 43.9 µM (inactive), the GI50 (OVCAR-3) was > 100 µM (inactive) and the GI50 (Malme-3M) was 20.6 µM (inactive). The GI50 (NCI-H23) was > 100 µM (inactive), the GI50 (SNB-19) was 39.3 µM (inactive) and the GI50 (SK-MEL-2) was 45.1 µM (inactive). For the same compound, the GI50 (IGROV-1) was > 100 µM (inactive), the GI50 (KM-20L2) was > 100 µM (inactive) and the GI50 (DLD-1) was > 100 µM (inactive). For the same compound, the GI50 (M14) was 22.9 µM (inactive).
In the case of `Cc1cc(C)nc(NS(=O)(=O)c2ccc(NC(=O)c3cccc4c(Nc5ccc(S(=O)(=O)Nc6nc(C)cc(C)n6)cc5)c5ccc(Cl)cc5nc34)cc2)n1`, the GI50 (SF-295) is reported as 38 µM (inactive), the GI50 (SK-MEL-28) is reported as 29.6 µM (inactive) and the GI50 (SNB-75) is reported as 17.1 µM (inactive). The GI50 (SF-539) was 37.8 µM (inactive), the GI50 (A498) was 45 µM (inactive) and the GI50 (LXFL 529) was 33 µM (inactive). The GI50 (UACC-62) was 23.1 µM (inactive), the GI50 (M19-MEL) was 37.8 µM (inactive) and the GI50 (A549) was 41.1 µM (inactive). For the same compound, the GI50 (RPMI-8226) was 28.2 µM (inactive), the GI50 (HOP-92) was 28 µM (inactive) and the GI50 (UO-31) was 13.4 µM (inactive). For the same compound, the GI50 (DMS-114) was 25.1 µM (inactive), the GI50 (COLO 205) was 33.8 µM (inactive) and the GI50 (SK-MEL-5) was 20.1 µM (inactive). The GI50 (OVCAR-4) was 35.6 µM (inactive), the GI50 (SK-OV-3) was 26.7 µM (inactive) and the GI50 (K562) was 26.1 µM (inactive). For the same compound, the GI50 (ACHN) was 27.3 µM (inactive), the GI50 (EKVX) was 29.5 µM (inactive) and the GI50 (HCC 2998) was 36.6 µM (inactive). The GI50 (UACC-257) was 20.8 µM (inactive), the GI50 (SNB-78) was 39.4 µM (inactive) and the GI50 (MOLT-4) was 33.3 µM (inactive). The GI50 (HCT-116) was 28.1 µM (inactive), the GI50 (HCT-15) was 75.5 µM and the GI50 (OVCAR-8) was 34.7 µM (inactive). For the same compound, the GI50 (XF498) was 23.1 µM (inactive), the GI50 (RXF 393) was 78.3 µM (inactive) and the GI50 (CAKI-1) was 19.5 µM (inactive). For the same compound, the GI50 (786-0) was 28.4 µM (inactive), the GI50 (LOX IMVI) was 29.2 µM (inactive) and the GI50 (SN12C) was 35.5 µM (inactive). The GI50 (SW-620) was 54.1 µM (inactive), the GI50 (HOP-18) was > 100 µM (inactive) and the GI50 (HOP-62) was 24.4 µM (inactive). The GI50 (CCRF-CEM) was 27.5 µM (inactive), the GI50 (NCI-H522) was 15.6 µM (inactive) and the GI50 (OVCAR-5) was > 100 µM (inactive). For the same compound, the GI50 (HT-29) was 40.6 µM (inactive), the GI50 (NCI-H460) was 37 µM (inactive) and the GI50 (TK-10) was 30.8 µM (inactive). For the same compound, the GI50 (SF-268) was 28.6 µM (inactive), the GI50 (KM12) was 33.1 µM (inactive) and the GI50 (DMS-273) was 77.6 µM (inactive). For the same compound, the GI50 (U-251) was 27.5 µM (inactive), the GI50 (OVCAR-3) was 17.5 µM (inactive) and the GI50 (Malme-3M) was 16.4 µM (inactive). The GI50 (NCI-H23) was 39.4 µM (inactive), the GI50 (SNB-19) was 28.1 µM (inactive) and the GI50 (SK-MEL-2) was 34 µM (inactive). The GI50 (IGROV-1) was 46.2 µM (inactive), the GI50 (KM-20L2) was 40.5 µM (inactive) and the GI50 (DLD-1) was 33.7 µM (inactive). For the same compound, the GI50 (M14) was 37.4 µM (inactive).
